# Laboratory results: article PMC8848308 (Bioorganic & medicinal chemistry letters, 2020)
# Test system: Huh7 cells stably expressing DENV-3 replicon (strain D3MY05-34640)
# Assay: Luciferase reporter replicon assay, DENV-3
# Assay type: cell-based
# Details: on moving the 3-F group to the ortho position (compared with the 3-F analogue)
smiles,measurement,value
"O=C1CC2(C(=O)Nc3ccc(Cl)cc32)c2cnn(Cc3ccc(Cl)c(F)c3)c2N1 (stereo not shown) [Compound 22, 5-Chloro-1’-(4-chloro-3-fluorobenzyl)-5’,7’-dihydrospiro[indoline-3,4’-pyrazolo[3,4-b]pyridine]-2,6’(1’H)-dione]",loss of potency against DENV-3,20 fold
